Assay results taken from patent US9650395B2, “Antibacterial compounds and methods for use” (PTC Therapeutics, Inc., priority 2011, dated 2017).
≈ marks a conversion by molar mass, not a printed value.

How the values were obtained:
[1] = system: super sensitive Gram-negative Escherichia coli (E. coli) BAS849; assay: Antibacterial activity, microbroth dilution MIC, E. coli BAS849; type: cell-based; conditions: Escherichia coli; E. coli BAS849, microbroth dilution; read-out: MIC, BAS849
[2] = system: control Gram-negative E. coli 25922 strain; assay: Antibacterial activity, microbroth dilution MIC, E. coli 25922; type: cell-based, Escherichia coli; conditions: Escherichia coli; E. coli 25922, microbroth dilution; read-out: MIC, 25922
[3] = system: Gram-positive Staphylococcus aureus (S. aureus) 29213; assay: Antibacterial activity, microbroth dilution MIC, S. aureus 29213; type: cell-based; conditions: Staphylococcus aureus; S. aureus 29213, microbroth dilution; read-out: MIC, 29213
[4] = system: quinolone resistant E. coli LZ3111; assay: Antibacterial activity, MIC, quinolone resistant E. coli LZ3111; type: cell-based, Escherichia coli; conditions: Escherichia coli, read-out: MIC, LZ3111
From the text: (§1) The antibacterial activity from a microbroth dilution method may be presented as the minimum inhibitory concentration (MIC in […]). The MIC value is the lowest concentration of a drug which prevents macroscopically visible bacterial growth under test conditions.
Mutations in these regions are known to confer a high level resistance to the quinolone class of antibiotics.

[5] = system: Acinetobacter baumannii (A. baumannii) BAA747; assay: Antibacterial activity, MIC, A. baumannii BAA747; type: cell-based; conditions: Acinetobacter baumannii; A. baumannii BAA747; read-out: MIC BAA747
[6] = system: Klebsiella pneumoniae (K. pneumoniae) 35657; assay: Antibacterial activity, MIC, K. pneumoniae 35657; type: cell-based; conditions: Klebsiella pneumoniae
[7] = system: resistant A. baumannii MXX2240 (MDR clinical isolate); assay: Antibacterial activity, MIC, resistant A. baumannii MXX2240; type: cell-based, Acinetobacter baumannii; conditions: Acinetobacter baumannii, resistant A. baumannii MMX2240, MDR clinical isolate; read-out: MIC MMX2240
[8] = system: resistant K. pneumoniae MXX1232 (MDR clinical isolate); assay: Antibacterial activity, MIC, resistant K. pneumoniae MXX1232; type: cell-based, Klebsiella pneumoniae; conditions: Klebsiella pneumoniae; resistant K. pneumoniae MMX1232, MDR clinical isolate; read-out: MIC MMX1232
[9] = system: Pseudomonas aeruginosa (P. aeruginosa) 27853; assay: Antibacterial activity, MIC, P. aeruginosa 27853; type: cell-based; conditions: Pseudomonas aeruginosa, P. aeruginosa 27853; read-out: MIC 27853
From the text: as §1
Antibacterial activity of test compounds against the Gram-negative bacterium Pseudomonas aeruginosa (P. aeruginosa) 27853 is shown in Table 5.

For `CCc1c(-c2ccc(NC)cc2)[nH]c(=O)c(C(=O)O)c1O` [Cpd 326, 5-ethyl-4-hydroxy-6-(4-(methylamino)phenyl)-2-oxo-1,2-dihydropyridine-3-carboxylic acid], the MIC [1] was < 1 µg/mL, the MIC [2] was 3.5 to 12.5 µg/mL (≈ 12.1 to 43.4 µM) and the MIC [3] was 12.5 to 150 µg/mL (≈ 43.4 to 520 µM). The MIC [4] was 12.5 to 150 µg/mL (≈ 43.4 to 520 µM), the MIC [5] was 1 to 3.5 µg/mL (≈ 3.47 to 12.1 µM) and the MIC [6] was 3.5 to 12.5 µg/mL (≈ 12.1 to 43.4 µM). It also gave an MIC [7] of 3.5 to 12.5 µg/mL (≈ 12.1 to 43.4 µM), an MIC [8] of 12.5 to 150 µg/mL (≈ 43.4 to 520 µM) and an MIC [9] of 12.5 to 150 µg/mL (≈ 43.4 to 520 µM).
In the case of `CN(C)c1ccc(-c2[nH]c(=O)c(C(=O)O)c(O)c2CCO)cc1` [Cpd 328, 6-(4-(dimethylamino)phenyl)-4-hydroxy-5-(2-hydroxyethyl)-2-oxo-1,2-dihydropyridine-3-carboxylic acid], the MIC [1] is reported as < 1 µg/mL, the MIC [2] is reported as 3.5 to 12.5 µg/mL (≈ 11 to 39.3 µM) and the MIC [3] is reported as 12.5 to 150 µg/mL (≈ 39.3 to 471 µM). It also gave an MIC [4] of 3.5 to 12.5 µg/mL (≈ 11 to 39.3 µM), an MIC [5] of 12.5 to 150 µg/mL (≈ 39.3 to 471 µM) and an MIC [6] of 3.5 to 12.5 µg/mL (≈ 11 to 39.3 µM). The MIC [7] was 3.5 to 12.5 µg/mL (≈ 11 to 39.3 µM), the MIC [8] was 12.5 to 150 µg/mL (≈ 39.3 to 471 µM) and the MIC [9] was 12.5 to 150 µg/mL (≈ 39.3 to 471 µM).
`Cc1c(-c2ccc(N3CCC(N(C)C)C3)cn2)[nH]c(=O)c(C(=O)O)c1O` (stereo not drawn) [Cpd 316, 6-(5-(3-(dimethylamino)pyrrolidin-1-yl)pyridin-2-yl)-4-hydroxy-5-methyl-2-oxo-1,2-dihydropyridine-3-carboxylic acid] showed an MIC [1] of 12.5 to 150 µg/mL (≈ 34.9 to 419 µM), an MIC [2] of 12.5 to 150 µg/mL (≈ 34.9 to 419 µM) and an MIC [3] of 12.5 to 150 µg/mL (≈ 34.9 to 419 µM). The MIC [4] was 12.5 to 150 µg/mL (≈ 34.9 to 419 µM), the MIC [5] was 12.5 to 150 µg/mL (≈ 34.9 to 419 µM) and the MIC [6] was 12.5 to 150 µg/mL (≈ 34.9 to 419 µM). It also gave an MIC [7] of 12.5 to 150 µg/mL (≈ 34.9 to 419 µM), an MIC [8] of 12.5 to 150 µg/mL (≈ 34.9 to 419 µM) and an MIC [9] of 12.5 to 150 µg/mL (≈ 34.9 to 419 µM).
For `CCc1c(-c2cnc(N(C)C)cn2)[nH]c(=O)c(C(=O)O)c1O` [Cpd 312, 6-(5-(dimethylamino)pyrazin-2-yl)-5-ethyl-4-hydroxy-2-oxo-1,2-dihydropyridine-3-carboxylic acid], the MIC [1] was < 1 µg/mL, the MIC [2] was 12.5 to 150 µg/mL (≈ 41.1 to 493 µM) and the MIC [3] was 12.5 to 150 µg/mL (≈ 41.1 to 493 µM). The MIC [4] was 12.5 to 150 µg/mL (≈ 41.1 to 493 µM), the MIC [5] was 3.5 to 12.5 µg/mL (≈ 11.5 to 41.1 µM) and the MIC [6] was 3.5 to 12.5 µg/mL (≈ 11.5 to 41.1 µM). For the same compound, the MIC [7] was 12.5 to 150 µg/mL (≈ 41.1 to 493 µM), the MIC [8] was 12.5 to 150 µg/mL (≈ 41.1 to 493 µM) and the MIC [9] was 12.5 to 150 µg/mL (≈ 41.1 to 493 µM).
`CCc1c(-c2ccc(N3CCC(N(C)C)C3)nc2)[nH]c(=O)c(C(=O)O)c1O` (stereo not drawn) [Cpd 335, 6-(6-(3-(dimethylamino)pyrrolidin-1-yl)pyridin-3-yl)-5-ethyl-4-hydroxy-2-oxo-1,2-dihydropyridine-3-carboxylic acid] showed an MIC [1] of 3.5 to 12.5 µg/mL (≈ 9.4 to 33.6 µM), an MIC [2] of 12.5 to 150 µg/mL (≈ 33.6 to 403 µM) and an MIC [3] of 12.5 to 150 µg/mL (≈ 33.6 to 403 µM). The MIC [4] was < 1 µg/mL, the MIC [5] was 12.5 to 150 µg/mL (≈ 33.6 to 403 µM) and the MIC [6] was 12.5 to 150 µg/mL (≈ 33.6 to 403 µM). The MIC [7] was 12.5 to 150 µg/mL (≈ 33.6 to 403 µM), the MIC [8] was 12.5 to 150 µg/mL (≈ 33.6 to 403 µM) and the MIC [9] was 12.5 to 150 µg/mL (≈ 33.6 to 403 µM).
For `CCc1c(-c2cnc(N3CCCC3)cn2)[nH]c(=O)c(C(=O)O)c1O` [Cpd 313, 5-ethyl-4-hydroxy-2-oxo-6-(5-(pyrrolidin-1-yl)pyrazin-2-yl)-1,2-dihydropyridine-3-carboxylic acid], the MIC [1] was < 1 µg/mL, the MIC [2] was 12.5 to 150 µg/mL (≈ 37.8 to 454 µM) and the MIC [3] was 12.5 to 150 µg/mL (≈ 37.8 to 454 µM). The MIC [4] was 12.5 to 150 µg/mL (≈ 37.8 to 454 µM), the MIC [5] was 3.5 to 12.5 µg/mL (≈ 10.6 to 37.8 µM) and the MIC [6] was 3.5 to 12.5 µg/mL (≈ 10.6 to 37.8 µM). For the same compound, the MIC [7] was 12.5 to 150 µg/mL (≈ 37.8 to 454 µM), the MIC [8] was 12.5 to 150 µg/mL (≈ 37.8 to 454 µM) and the MIC [9] was 12.5 to 150 µg/mL (≈ 37.8 to 454 µM).
`CCc1c(-c2ccc(O)cc2)[nH]c(=O)c(C(=O)O)c1O` [Cpd 334, 5-ethyl-4-hydroxy-6-(4-hydroxyphenyl)-2-oxo-1,2-dihydropyridine-3-carboxylic acid] was tested, and the MIC [1] was 3.5 to 12.5 µg/mL (≈ 12.7 to 45.4 µM), the MIC [2] was 12.5 to 150 µg/mL (≈ 45.4 to 545 µM) and the MIC [3] was 12.5 to 150 µg/mL (≈ 45.4 to 545 µM). The MIC [4] was 12.5 to 150 µg/mL (≈ 45.4 to 545 µM), the MIC [5] was 12.5 to 150 µg/mL (≈ 45.4 to 545 µM) and the MIC [6] was 12.5 to 150 µg/mL (≈ 45.4 to 545 µM). The MIC [7] was 12.5 to 150 µg/mL (≈ 45.4 to 545 µM), the MIC [8] was 12.5 to 150 µg/mL (≈ 45.4 to 545 µM) and the MIC [9] was 12.5 to 150 µg/mL (≈ 45.4 to 545 µM).
With `CN(C)c1ccc(-c2[nH]c(=O)c(C(=O)O)c(O)c2CC=O)cc1` [Cpd 327, 6-(4-(dimethylamino)phenyl)-4-hydroxy-2-oxo-5-(2-oxoethyl)-1,2-dihydropyridine-3-carboxylic acid] the MIC [1] was 3.5 to 12.5 µg/mL (≈ 11.1 to 39.5 µM), the MIC [2] was 12.5 to 150 µg/mL (≈ 39.5 to 474 µM) and the MIC [3] was 12.5 to 150 µg/mL (≈ 39.5 to 474 µM). For the same compound, the MIC [4] was 12.5 to 150 µg/mL (≈ 39.5 to 474 µM), the MIC [5] was 12.5 to 150 µg/mL (≈ 39.5 to 474 µM) and the MIC [6] was 12.5 to 150 µg/mL (≈ 39.5 to 474 µM). For the same compound, the MIC [7] was 12.5 to 150 µg/mL (≈ 39.5 to 474 µM), the MIC [8] was 12.5 to 150 µg/mL (≈ 39.5 to 474 µM) and the MIC [9] was 12.5 to 150 µg/mL (≈ 39.5 to 474 µM).
`CCc1c(-c2ccc(C3CCN(C)CC3)cc2)[nH]c(=O)c(C(=O)O)c1O` [Cpd 338, 5-ethyl-4-hydroxy-6-(4-(1-methylpiperidin-4-yl)phenyl)-2-oxo-1,2-dihydropyridine-3-carboxylic acid] showed an MIC [1] of 12.5 to 150 µg/mL (≈ 35.1 to 421 µM), an MIC [2] of 12.5 to 150 µg/mL (≈ 35.1 to 421 µM) and an MIC [3] of 12.5 to 150 µg/mL (≈ 35.1 to 421 µM). It also gave an MIC [4] of 12.5 to 150 µg/mL (≈ 35.1 to 421 µM), an MIC [5] of 12.5 to 150 µg/mL (≈ 35.1 to 421 µM) and an MIC [6] of 12.5 to 150 µg/mL (≈ 35.1 to 421 µM). For the same compound, the MIC [7] was 12.5 to 150 µg/mL (≈ 35.1 to 421 µM), the MIC [8] was 12.5 to 150 µg/mL (≈ 35.1 to 421 µM) and the MIC [9] was 12.5 to 150 µg/mL (≈ 35.1 to 421 µM).
